US12582638B2, “Pharmaceutical composition for treating cancer, containing mTOR-signaling inhibitor as active ingredient” (KOREA ADVANCED INSTITUTE OF SCIENCE AND TECHNOLOGY, priority 2020, dated 2026)
pIC50: −log10 of the molar value.

Assays:
Assay in all cases: Cell viability, CellTiterGlo, 72 hours
Type in all cases: cell-based
[1] = tested on: NCI-H2110; details: NCI-H2110 cells, Lung
Experimental: (§1) In addition to the colorectal cells, 120 cancer cell lines treated with various concentrations of lomitapide were assayed for viability. To analyze cell viability, the cells were incubated with lomitapide at 37° C. for 72 hours in a 5% or 10% CO2 atmosphere and then equilibrated at room temperature for 1 hour, followed by addition of CellTiterGlo reagent (Promega). One hour later, luminescence was measured to calculate cell viability (%). The 120 cell lines were purchased from ATCC (American Type Culture Collection, Virginia, USA).

[2] = tested on: SK-MEL-3; details: Homo sapiens, SK-MEL3, SK-MEL-3 cells, Skin
Experimental: as §1

[3] = tested on: NCI-H2009; details: Homo sapiens, NCI-H2009 cells, Lung
Experimental: as §1

[4] = tested on: BxPC-3; details: Homo sapiens, BxPC-3 cells, Pancreas
Experimental: as §1

[5] = tested on: JVM-3; details: Homo sapiens, JVM-3 cells, Blood
Experimental: as §1

[6] = tested on: H2228; details: Homo sapiens, NCI-H2228, H2228 cells, Lung
Experimental: as §1

[7] = tested on: HCC827; details: Homo sapiens, HCC827 cells, Lung
Experimental: as §1

[8] = tested on: NCI-H292; details: Homo sapiens, NCI-H292 cells, Lung
Experimental: as §1

[9] = tested on: NCI-H838; details: Homo sapiens, NCI-H838 cells, Lung
Experimental: as §1

[10] = tested on: NCI-H1563; details: Homo sapiens, NCI-H1563 cells, Lung
Experimental: as §1

[11] = tested on: A2058; details: Homo sapiens, A2058 cells, Skin
Experimental: as §1

[12] = tested on: SK.BR-3; details: Homo sapiens, SK.BR-3 cells, Breast
Experimental: as §1

[13] = tested on: MOLT-4; details: Homo sapiens, MOLT-4 cells, Blood
Experimental: as §1

[14] = tested on: BT-20; details: Homo sapiens, BT-20 cells, Breast
Experimental: as §1

[15] = tested on: MDA MB 435; details: Homo sapiens, MDA MB 435 cells, Skin
Experimental: as §1

[16] = tested on: OVCAR-3; details: Homo sapiens, OVCAR-3 cells, Ovary
Experimental: as §1

[17] = tested on: SNU-216; details: SNU-216 cells, Stomach
Experimental: as §1

[18] = tested on: NCI-H1573; details: Homo sapiens, NCI-H1573 cells, Lung
Experimental: as §1

[19] = tested on: NCI-H1437; details: Homo sapiens, NCI-H1437 cells, Lung
Experimental: as §1

[20] = tested on: OPM-2; details: Homo sapiens, OPM-2 cells, Blood
Experimental: as §1

[21] = tested on: SK-N-SH; details: Homo sapiens, SK-N-SH cells, Brain
Experimental: as §1

[22] = tested on: PANC-1; details: Homo sapiens, PANC-1 cells, Pancreas
Experimental: as §1

[23] = tested on: Hep3B2.1-7; details: Hep3B2.1-7 cells, Liver
Experimental: as §1

[24] = tested on: A498; details: Homo sapiens, A498 cells, Kidney
Experimental: as §1

[25] = tested on: SCLC-21H; details: Homo sapiens, SCLC-21H cells, Lung
Experimental: as §1

[26] = tested on: J82; details: Homo sapiens, J82 cells, Bladder
Experimental: as §1

[27] = tested on: H460; details: Homo sapiens, NCI-H460, H460 cells, Lung
Experimental: as §1

[28] = tested on: SK-LU-1; details: Homo sapiens, SK-LU-1 cells, Lung
Experimental: as §1

[29] = tested on: Hutu 80; details: Homo sapiens, HuTu80, Hutu 80 cells, Duodenum
Experimental: as §1

[30] = tested on: A172; details: Homo sapiens, A 172, A172 cells, Brain
Experimental: as §1

[31] = tested on: Caki-2; details: Homo sapiens, Caki-2 cells, Kidney
Experimental: as §1

[32] = tested on: H1299; details: Homo sapiens, NCI-H1299, H1299 cells, Lung
Experimental: as §1

[33] = tested on: LOU-NH91; details: LOU-NH91 cells, Lung
Experimental: as §1

[34] = tested on: DU-145; details: Homo sapiens, DU-145 cells, Prostate
Experimental: as §1

[35] = tested on: RERF-LC-MS; details: RERF-LC-MS cells, Lung
Experimental: as §1

[36] = tested on: DV90; details: Homo sapiens, DV-90, DV90 cells, Lung
Experimental: as §1

[37] = tested on: OVK18; details: OVK18 cells, Ovary
Experimental: as §1

[38] = tested on: HL-60; details: Homo sapiens, HL-60 cells, Blood
Experimental: as §1

[39] = tested on: NCI-H82; details: Homo sapiens, NCI-H82 cells, Lung
Experimental: as §1

O=C(NC1CCN(CCCCC2(C(=O)NCC(F)(F)F)c3ccccc3-c3ccccc32)CC1)c1ccccc1-c1ccc(C(F)(F)F)cc1 [lomitapide, N-(2,2,2-trifluoroethyl)-9-[4-[4-[[[4′-(trifluoromethyl)[1,1′-biphenyl]2-yl]carbonyl]amino]-1-piperidinyl]butyl]-9H-fluoren-9-carboxamide]
pIC50 [1]: 5.48
pIC50 [2]: 5.80
pIC50 [3]: 5.48
pIC50 [4]: 5.24
pIC50 [5]: 5.40
pIC50 [6]: 5.28
pIC50 [7]: 5.39
pIC50 [8]: 5.52
pIC50 [9]: 5.42
pIC50 [10]: 5.28
pIC50 [11]: 5.85
pIC50 [12]: 5.41
pIC50 [13]: 5.44
pIC50 [14]: 5.30
pIC50 [15]: 5.52
pIC50 [16]: 5.28
pIC50 [17]: 5.51
pIC50 [18]: 5.33
pIC50 [19]: 5.51
pIC50 [20]: 5.36
pIC50 [21]: 5.49
pIC50 [22]: 5.35
pIC50 [23]: 5.57
pIC50 [24]: 5.54
pIC50 [25]: 5.52
pIC50 [26]: 5.44
pIC50 [27]: 5.42
pIC50 [28]: 5.34
pIC50 [29]: 5.52
pIC50 [30]: 5.72
pIC50 [31]: 5.55
pIC50 [32]: 5.32
pIC50 [33]: 5.24
pIC50 [34]: 5.30
pIC50 [35]: 5.49
pIC50 [36]: 5.28
pIC50 [37]: 5.48
pIC50 [38]: 5.48
pIC50 [39]: 5.49
